Data reported in patent US8623859B2, “Bradykinin B1 antagonists” (Evotec AG, priority 2008, dated 2014).
Counter-ions that a name gives are not always drawn.

biological target: T1, human B1 (Homo sapiens, UniProt P46663); assay: Calcium flux assay for Bradykinin B1 antagonist, CHO-K1 cell line expressing human B1; format: cell-based; conditions: CHO-K1 cells expressing human B1, agonist Lys-(Des-Arg)-Bradykinin, read-out: Potency (IC50 value against human B1)
T1 construct: host or cells: CHO-K1
T1 sequence (P46663 1-353): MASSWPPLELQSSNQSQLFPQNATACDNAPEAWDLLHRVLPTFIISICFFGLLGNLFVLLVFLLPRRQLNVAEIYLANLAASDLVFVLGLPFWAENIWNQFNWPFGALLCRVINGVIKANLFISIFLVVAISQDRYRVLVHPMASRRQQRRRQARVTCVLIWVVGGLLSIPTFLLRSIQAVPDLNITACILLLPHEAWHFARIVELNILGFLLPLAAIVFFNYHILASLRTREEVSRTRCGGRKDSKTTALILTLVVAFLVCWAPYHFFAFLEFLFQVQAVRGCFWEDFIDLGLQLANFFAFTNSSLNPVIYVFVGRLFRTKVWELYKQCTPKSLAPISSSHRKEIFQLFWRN
Procedure, shortened: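 Inhibition of B1 agonist-evoked intracellular Ca2+ rise was followed by continuous fluorescence at 538 nm, with integrated, background-normalized signals plotted versus log compound concentration. Test compounds (eight 10-fold dilutions, triplicate, 1% DMSO final) were added 30 min at 25° C beforehand to Fluo-4AM-loaded human B1 CHO-K1 cells in pH 7.4 assay buffer.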

IC50	SMILES
100 to 1000 nM	COc1cc(C)c(S(=O)(=O)N(C)Cc2cc(C(=O)NCCc3ccc(CN4CC[C@H](N(C)C)C4)cc3)co2)c(C)c1 [Ex 92, N-[2-(4-{[(3S)-3-(Dimethylamino)pyrrolidin-1-yl]methyl}phenyl)ethyl]-5-({[(4-methoxy-2,6-dimethylphenyl)sulfonyl](methyl)amino}methyl)furan-3-carboxamide, trifluoroacetate]
10 to 100 nM	COc1cc(C)c(S(=O)(=O)N(C)Cc2cc(C(=O)NCc3ccc(C4=NCC(C)(C)N4)cc3)co2)c(C)c1 [Ex 93, N-[4-(5,5-Dimethyl-4,5-dihydro-1H-imidazol-2-yl)benzyl]-5-({[(4-methoxy-2,6-dimethylphenyl)sulfonyl](methyl)amino}methyl)furan-3-carboxamide trifluoroacetate]
< 10 nM	COc1cc(C)c(S(=O)(=O)N(C)Cc2cc(C(=O)NCCc3ccc(C4=NCC(C)(C)N4)cc3)co2)c(C)c1 [Ex 94, N-{2-[4-(5,5-Dimethyl-4,5-dihydro-1H-imidazol-2-yl)phenyl]ethyl}-5-({[(4-methoxy-2,6-dimethylphenyl)sulfonyl](methyl)amino}methyl)furan-3-carboxamide trifluoroacetate]
100 to 1000 nM	COc1cc(C)c(S(=O)(=O)N(C)Cc2cc(C(=O)N3CCCC(c4ccc(CN5CCCC5)cc4)C3)co2)c(C)c1 (centres unmarked) [Ex 95, 4-Methoxy-N,2,6-trimethyl-N-{[4-({3-[4-(pyrrolidin-1-ylmethyl)phenyl]piperidin-1-yl}carbonyl)furan-2-yl]methyl}benzenesulfonamide trifluoroacetamide]
100 to 1000 nM	COc1cc(C)c(S(=O)(=O)N(C)Cc2cc(C(=O)NCc3ccc(CNCc4ccncc4)cc3)co2)c(C)c1 [Ex 96, 5-({[(4-Methoxy-2,6-dimethylphenyl)sulfonyl](methyl)amino}methyl)-N-(4-{[(pyridin-4-ylmethyl)amino]methyl}benzyl)furan-3-carboxamide trifluoroacetate]
10 to 100 nM	COc1cc(C)c(S(=O)(=O)N(C)Cc2cc(C(=O)NCc3ccc(CN4CCC4)cc3)co2)c(C)c1 [Ex 97, N-[4-(Azetidin-1-ylmethyl)benzyl]-5-({[(4-methoxy-2,6-dimethylphenyl)sulfonyl](methyl)amino}methyl)furan-3-carboxamide trifluoroacetate]
100 to 1000 nM	COc1cc(C)c(S(=O)(=O)N(C)Cc2cc(C(=O)N(C)CCc3ccc(C4=NCCN4C)cc3)co2)c(C)c1 [Ex 98, 5-({[(4-Methoxy-2,6-dimethylphenyl)sulfonyl](methyl)amino}methyl)-N-methyl-N-{2-[4-(1-methyl-4,5-dihydro-1H-imidazol-2-yl)phenyl]ethyl}furan-3-carboxamide trifluoroacetamide]
100 to 1000 nM	COc1cc(C)c(S(=O)(=O)N(C)Cc2cc(C(=O)NCc3ccc(CN4CCCCC4C)cc3)co2)c(C)c1 (centres unmarked) [Ex 99, 5-({[(4-Methoxy-2,6-dimethylphenyl)sulfonyl](methyl)amino}methyl)-N-{4-[(2-methylpiperidin-1-yl)methyl]benzyl}furan-3-carboxamide trifluoroacetate]
100 to 1000 nM	COc1cc(C)c(S(=O)(=O)N(C)Cc2cc(C(=O)NCc3ccc(CN4CCCCC4)cc3)co2)c(C)c1 [Ex 100, 5-({[(4-Methoxy-2,6-dimethylphenyl)sulfonyl](methyl)amino}methyl)-N-[4-(piperidin-1-ylmethyl)benzyl]furan-3-carboxamide trifluoroacetate]
100 to 1000 nM	COc1cc(C)c(S(=O)(=O)N(C)Cc2cc(C(=O)NCc3ccc(CN4CCCCCC4)cc3)co2)c(C)c1 [Ex 101, N-[4-(Azepan-1-ylmethyl)benzyl]-5-({[(4-methoxy-2,6-dimethylphenyl)sulfonyl](methyl)amino}methyl)furan-3-carboxamide trifluoroacetate]
100 to 1000 nM	CCN(Cc1cc(C(=O)N(C)Cc2ccc(CN3CCCC3)cc2)co1)S(=O)(=O)c1c(C)cc(OC)cc1C [Ex 102, 5-({Ethyl[(4-methoxy-2,6-dimethylphenyl)sulfonyl]amino}methyl)-N-methyl-N-[4-(pyrrolidin-1-ylmethyl)benzyl]furan-3-carboxamide trifluoroacetate]
